{"source": "patent US20260335293A1", "about": "“USE OF NOVEL COMPOUND FOR TREATING INTRACTABLE DISEASES” (YJ CERAPEUTICS INC., priority 2023, published 2026)", "format_in_all_cases": "in vivo, Sprague-Dawley rats", "key": {"[1]": {"system": "p38MAPK", "assay": "p38MAPK phosphorylation in spinal cord of SNI model, Western blot", "description": "To be used as a peripheral nerve injury animal model, a sciatic nerve injury (SNI) model was prepared (FIG. 1C). Specifically, 200 to 220 g of male adult Sprague-Dawley rats were anesthetized by intraperitoneal injection of chloral hydrate (500 mg/kg), and then three terminal branches (tibial, common peroneal, and sural nerves) of the right sciatic nerve were approached, and the tibia nerve and the peroneal nerve were tightly ligated with 4-0 silk, and neurectomy was performed at a distal 3 mm position of the ligation site. At this time, a Sham group was a group that exposed only the sciatic nerve without damage.\nTo analyze the activation of microglia in the spinal cord, which were known to play an important role in the induction/persistence of neuropathic pain, 4 weeks after nerve injury in the SNI animal model, the spinal cord of 4 and 5 lumbar vertebrae was stained with OX-42 to confirm changes in cell shape and intensity. […] The supernatant was transferred to a new microcentrifuge, the protein concentration was measured using a BCA kit, and samples for Western blot were prepared by adding a 1× sample buffer and boiling for 5 minutes. […]"}, "[2]": {"system": "urinary disturbances caused by spinal cord injury (bladder function)", "assay": "Urinary function (residual urine volume, UBFS, bladder size and weight) in SCI model", "conditions": "5 mg/kg i.p.", "description": "To be used as a central nerve injury animal model, a traumatic spinal cord injury (SCI) model was prepared (FIG. 1A). Specifically, 230 to 250 g of male adult Sprague-Dawley rats were anesthetized by intraperitoneal injection of chloral hydrate (500 mg/kg), and then the back and neck regions were shaved, and the spinal cord under the back and neck regions was exposed without damaging the dura mater, and a laminectomy was performed at T9 to T10 levels. To stabilize the spine, the spinous processes of T8 and T11 were fixed, and the spine was damaged by free-falling a 10 g weight from a height of 25 mm using an NYU impactor onto the back surface of the exposed spinal cord and then the rats were left in a temperature and humidity-controlled chamber overnight while covering the muscles and skin. After surgery, the rats were subcutaneously injected with a supplement solution (5 ml, lactated ringer) and injected with antibiotics (gentamicin, 5 mg/kg, intramuscular injection) once daily for 5 days. The body weight, remaining food, and the weight of water were confirmed and recorded for all animals, and the bladder was emptied twice daily by passive bladder massage until reflex micturition was established. At this time, a Sham group was a group that was subjected to only laminectomy without damage.\nIn order to confirm the effect of YJ102 (Chemical Formula 1), a compound of the present disclosure, on urinary disturbances caused by spinal cord injury, immediately after preparing the traumatic spinal cord injury (SCI) model (FIG. 1A) prepared in Example 1 above, YJ102 was dissolved in DMSO, methyl pyrrolidinone, and water (1:1.5:1) and administered intraperitoneally at 5 mg/kg, and then intraperitoneally administered at 24-hour intervals for 7 days from the next day. Thereafter, the effect of improving bladder functions was analyzed through a residual urine volume test and a urinary bladder function score (UBFS). […] Specifically, in order to determine the amount of urine remaining in the bladder after spinal cord injury, bladder extrusion was performed twice a day by applying pressure to the central bottom portion of the lower abdomen using the index and middle fingers to empty the bladder, and the expelled urine was collected in a catheter and its volume was recorded. In addition, the UBFS was assessed daily using a 0-4 point UBFS (0=total loss of function (manual bladder extrusion 3 times a day, bloody urine), 1=partial restoration of UBF (manual extrusion 2 times a day, bloody urine), 2=partial restoration of UBF (partial/complete release of sphincter spasm, manual extrusion once a day, persistently bloody urine), 3=high restoration (manual extrusion once a day, no bloody urine), and 4=normal UBF) as in the reference (Zeng et al., Spinal Cord (2017) 55:834-839)."}, "[3]": {"system": "bladder wall", "assay": "Bladder hypertrophy (bladder wall thickness, H&E) in SCI model", "conditions": "5 mg/kg i.p., day 1 after SCI"}, "[4]": {"system": "ZO-1", "assay": "Tight junction protein ZO-1 in bladder of SCI model, Western blot", "conditions": "SCI day 1, Western blot"}, "[5]": {"system": "MPO-positive neutrophils", "assay": "Introduction of neutrophils (MPO) into bladder of SCI model, immunofluorescence", "conditions": "day 1 after SCI"}, "[6]": {"system": "inflammatory cytokines and chemokines in bladder tissue", "assay": "Inflammatory factor expression in bladder of SCI model, RT-PCR and Western blot", "conditions": "bladder after SCI", "description": "In order to confirm the effect of YJ102 (Chemical Formula 1), a compound of the present disclosure, on urinary disturbances caused by spinal cord injury, immediately after preparing the traumatic spinal cord injury (SCI) model (FIG. 1A) prepared in Example 1 above, YJ102 was dissolved in DMSO, methyl pyrrolidinone, and water (1:1.5:1) and administered intraperitoneally at 5 mg/kg, and then intraperitoneally administered at 24-hour intervals for 7 days from the next day. Thereafter, the effect of improving bladder functions was analyzed through a residual urine volume test and a urinary bladder function score (UBFS). At this time, a Vehicle group was administered with the same amount of a solution of DMSO, methyl pyrrolidinone, and water. Specifically, in order to determine the amount of urine remaining in the bladder after spinal cord injury, bladder extrusion was performed twice a day by applying pressure to the central bottom portion of the lower abdomen using the index and middle fingers to empty the bladder, and the expelled urine was collected in a catheter and its volume was recorded. In addition, the UBFS was assessed daily using a 0-4 point UBFS (0=total loss of function (manual bladder extrusion 3 times a day, bloody urine), 1=partial restoration of UBF (manual extrusion 2 times a day, bloody urine), 2=partial restoration of UBF (partial/complete release of sphincter spasm, manual extrusion once a day, persistently bloody urine), 3=high restoration (manual extrusion once a day, no bloody urine), and 4=normal UBF) as in the reference (Zeng et al., Spinal Cord (2017) 55:834-839).\nTo confirm the effect of YJ102 on the expression of inflammatory factors in the bladder after spinal cord injury, the expression of inflammatory cytokines and chemokines, COX-2, iNOS, IL-6, IL-1β, MIP-1α, MIP-1β, MIP-2a, and Gro-α in bladder tissue was confirmed by RT-PCR analysis and Western blot analysis using the primers in Table 2 above. In addition, even in the Raw 264.7 cell line, the expression was verified by RT-PCR analysis."}}}
{"smiles": "CCc1ccc(N(C(=O)COC)c2nc3cc(Cl)ccc3o2)cc1", "note": "[YJ102]", "values": [{"measurement": "amount of p-p38MAPK", "setting": "[1]", "result": "significantly reduced"}, {"measurement": "bladder size", "setting": "[2]", "result": "significantly reduced"}, {"measurement": "bladder weight", "setting": "[2]", "result": "significantly reduced"}, {"measurement": "residual urine volume", "setting": "[2]; vs Veh, from the first day of administration", "result": "significantly reduced"}, {"measurement": "bladder function restoration analysis using the UBFS (printed as residual urine volume)", "setting": "[2]; vs Vehicle, day 3 and day 7 after SCI", "result": "significantly increased"}, {"measurement": "thickness of lamina propria", "setting": "[3]", "result": "significantly reduced"}, {"measurement": "thickness of muscle layer", "setting": "[3]", "result": "significantly reduced"}, {"measurement": "thickness of urothelium layer", "setting": "[3]", "result": "significantly reduced"}, {"measurement": "reduction in amount of ZO-1", "setting": "[4]", "result": "significantly inhibited"}, {"measurement": "introduction of MPO-positive neutrophils into the bladder", "setting": "[5]", "result": "significantly inhibited"}, {"measurement": "expression of COX-2", "setting": "[6]", "result": "significantly reduced"}, {"measurement": "expression of Gro-α", "setting": "[6]", "result": "significantly reduced"}, {"measurement": "expression of IL-1β", "setting": "[6]", "result": "significantly reduced"}, {"measurement": "expression of IL-6", "setting": "[6]", "result": "significantly reduced"}, {"measurement": "expression of MIP-1B", "setting": "[6]", "result": "significantly reduced"}, {"measurement": "expression of MIP-1 a", "setting": "[6]", "result": "significantly reduced"}, {"measurement": "expression of MIP-2a", "setting": "[6]", "result": "significantly reduced"}, {"measurement": "expression of iNOS", "setting": "[6]", "result": "significantly reduced"}]}
